Consider two compounds from paper PMC10595561, “A novel microextraction technique aided by air agitation using a natural hydrophobic deep eutectic solvent for the extraction of fluvastatin and empagliflozin from plasma samples: application to pharmacokinetic and drug–drug interaction study” (RSC Advances, 2023).

For series [1] the following is noted: cited from earlier work.
For series [2], the system named is organic anion transporting polypeptide 1B1 (OATP1B1). More on the design: method as in PMID 27936281, PMID 19785645, PMID 29538325. As to conditions: cited from earlier work.
Series [3] can be described thus: Pharmacokinetic study of FLV in rabbits after oral FLV alone and with EMP. It is filed as in vivo, New Zealand white rabbits. As to conditions: mean ± SD; for AUC(0-t) / k el / half-life / AUC(0-inf) / Cmax / MRT: rabbit, plasma, po, 2 mg/kg; for AUC(0-t): read-out: AUC0-24; for k el: read-out: Ke (elimination rate constant) (converted); for half-life: read-out: t0.5 (elimination half-life) (converted). On the procedure:
Ethical approval (under the No. 06/2023/0111) for this research was granted by the ethics committee at Assiut University, Egypt, and the study was conducted in adherence to the principles outlined in the Declaration of Helsinki. The study involved six New Zealand white rabbits, each weighing 2.0 ± 0.2 kg, obtained from a licensed animal supplier in Assiut, Egypt. Before commencing the study, the rabbits' health was evaluated, ensuring they were in good condition. The rabbits were individually housed in cages measuring 0.8 × 0.6 × 0.5 m and given a 15 day acclimatization period to adjust to the experimental conditions and handling. During this time, no medications or vaccines were administered to the rabbits. The room temperature was kept constant at 25 ± 2 °C, and the relative humidity was maintained at 50 ± 5%. Throughout the acclimatization period, the rabbits were provided with a commercial pellet diet and water. Before the experiment began, the rabbits fasted for approximately 12 hours while being allowed access to water.
The rabbits administered FLV via oral route at a dose of 2.0 mg kg^−1. After a washout period of 14 days to allow any FLV to clear from the rabbits' bodies, the same rabbits administered both (2 mg kg^−1 for FLV and 1.5 mg kg^−1 for EMP). Blood samples (1.0 mL) were collected after administration of the studied analytes after 0.25, 0.5, 1, 1.5, 3, 5, 7, 10, 12, 18 and 24 h of their administration. The samples were drawn from marginal ear vein, placed into tubes that had been heparinized, and centrifuged for 15 minutes at 6000 rpm. The plasma was then collected and stored at −20 °C in dark containers until analysis. The pharmacokinetic parameters of FLV were calculated using one compartment model for the treated group using Phoenix®WinNonlin software version 5.1 (Pharsight, Mountain View, CA, USA). These parameters included total area under the curve (AUC) from 0 to 24 hours (AUC0→24), cumulative plasma concentration from 0 to infinity (AUC0→∞), peak plasma concentration (Cmax), elimination rate constant (Ke), mean residence time (MRT), absorption half-life (t1/2a), and elimination half-life (t1/2). The data are reported as mean ± standard deviation (mean ± SD). To analyze differences in parameters between the groups, t-test was employed, using GraphPad Prism 9.0.

The conditions of series [4]: carboxylic acid functional group; no reference given; cited from earlier work.
Setting [5] is: New Zealand white, FLV (2 mg kg−1) co-administered with EMP (1.5 mg kg−1), oral, rabbit plasma.
The mark [6] stands for this setting: New Zealand white, FLV (2 mg kg−1) co-administered with EMP (1.5 mg kg−1), rabbit plasma.
The mark [7] stands for this setting: New Zealand white, FLV alone, oral 2.0 mg kg−1, rabbit plasma.

Like-named read-outs stand apart in the source and are kept apart here.

The log P is a log measure of how a compound divides between an organic and an aqueous phase. A word on the half-life: it is how long it takes for the measured level to halve. The AUC(0-inf) is total exposure, with the tail of the curve extrapolated. What is called Cmax is the peak of the concentration-time curve. The MRT is the average time that molecules of a dose stay in the body. By Tmax is commonly meant the time from dosing to the highest level.

Turning to `OC[C@H]1O[C@@H](c2ccc(Cl)c(Cc3ccc(O[C@H]4CCOC4)cc3)c2)[C@H](O)[C@@H](O)[C@@H]1O` [EMP, Empagliflozin], the “log P” value in series [1] is reported as 1.7. In series [2], the “Effect on OATP1B1 transporter” value was “inhibit”.

As for `CC(C)n1c(/C=C/C(O)CC(O)CC(=O)O)c(-c2ccc(F)cc2)c2ccccc21` (stereo not shown) [FLV, Fluvastatin], in series [3] (FLV (2 mg kg−1) co-administered with EMP (1.5 mg kg−1), oral, rabbit plasma), the Ka is 2.52 ± 0.42 h⁻¹. The compound further yielded a Ka in series [3] (FLV alone, oral 2.0 mg kg−1, rabbit plasma) of 2.24 ± 0.42 h⁻¹. In series [3] (setting [5]), the AUC(0-t) was found to be 2580 ± 245 ng·h/mL, the k el was 2.5e-05 s⁻¹, the half-life is 7.73 h and the Tmax was 1.5 h. Further, in series [3] (setting [6]), the AUC(0-inf) was 2900 ± 189 ng·h/mL, the highest concentration (Cmax) came to 352 ng/mL and the mean residence time (MRT) is 7.66 ± 0.77 h. In series [3] (setting [7]), the AUC(0-inf) stood at 1370 ± 144 ng·h/mL, the peak level (Cmax) was 250 ng/mL, the MRT came out at 6.99 ± 0.89 h and the AUC(0-t) was found to be 1340 ± 452 ng·h/mL. Besides, in series [3] (setting [7]), the k el is 4.44e-05 s⁻¹ and the half-life is 4.27 h. Besides, the “log P” value in series [1] is 4.5. The pKa entry in series [4] is given as “around 4.8”.
